The text below walks through data of patent publication US20220323472A1, “ANTI-PARASITIC COMPOUNDS FOR THE TREATMENT AND PREVENTION OF VIRAL DISEASES” (priority 2021, published 2022).

For this assay, the system named is Demodex mites. The assay can be described thus: in vitro Demodex survival time assay (LT50). As for the experimental part:
FIG. 4 summarizes the activity of 10% chloroquine in water relative to a water control on activity against Demodex mites in an in vitro assay, with an LT5o of 31.6 hours for chloroquine compared to 44.8 hours for the water control, illustrating the inactivation effect of chloroquine on Demodex.
Accordingly, chloroquine and ivermectin may be used to treat SAR-CoV-2 by reducing the microbial load or Demodex population of a patient suffering from viral infection.
In vitro efficacy and mite lifetimes: Relative efficacy of various formulations are evaluated with a demodex survival time experiments. FIG. 3 tabulates demodex survival time, expressed in terms of LT50 (time at which 50% of demodex mites are killed) and/or average minutes to death for various active agents.

In the case of `CCN(CC)CCCC(C)Nc1ccnc2cc(Cl)ccc12` (centres unmarked) [chloroquine], under “10% chloroquine in water, in vitro assay, water control 44.8 hours”, the “LT50 (time at which 50% of demodex mites are killed)” value was found to be 31.6 h. The “ex-vivo activity against Demodex mites” value (in vitro assay (FIGS. 3 and 4)) is “some ex-vivo activity”.
